Where a name gives a salt, the structure may show the parent alone.

Experiment [1] relates to HT-1197 cells. As to the kind of experiment: Cell-based assay: anti-proliferative activity, Cell Counting Kit-8, 72 hours (HT-1197, negative control without MELK expression). The following applies: Homo sapiens, HT1197, 72 h, HT1197 cells (negative control), 72 hours. In short, it runs like this:
(§1)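 T47D, A549 and BT-549 cells, with MELK-negative HT-1197 as control (MELK status checked by western blot), seeded at 2,000–3,000 cells/well. Growth measured by CCK-8 72 hours after inhibitor exposure; IC50 values calculated.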
(In general: Tetrazolium dyes change colour on reduction, which living cells bring about.)

Experiment [2] deals with T47D cells. As to the kind of experiment: Cell-based assay: anti-proliferative activity, Cell Counting Kit-8, 72 hours (T47D). The settings on record: Homo sapiens, T47D, 72 h. The essentials: as §1
Experiment [3] deals with MELK (Homo sapiens, UniProt Q14680). As to the kind of experiment: Kinase assay: MELK activity, phosphorylation of FITC-labeled histone H3 peptide measured by IMAP fluorescence polarization. The experiment is classed as biochemical. The following applies: MELK kinase assay, IMAP fluorescence polarization, 50 micro-M ATP; read-out: IC50 (μM) (kinase assay). In short, it runs like this: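 A FITC-labelled histone H3 peptide served as substrate, with compounds serially diluted to 1% DMSO final. Reactions were stopped with three volumes of IMAP progressive binding solution. After 0.5 h at room temperature, fluorescence polarization was read.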
MELK, sequence (Q14680 whole entry, looked up): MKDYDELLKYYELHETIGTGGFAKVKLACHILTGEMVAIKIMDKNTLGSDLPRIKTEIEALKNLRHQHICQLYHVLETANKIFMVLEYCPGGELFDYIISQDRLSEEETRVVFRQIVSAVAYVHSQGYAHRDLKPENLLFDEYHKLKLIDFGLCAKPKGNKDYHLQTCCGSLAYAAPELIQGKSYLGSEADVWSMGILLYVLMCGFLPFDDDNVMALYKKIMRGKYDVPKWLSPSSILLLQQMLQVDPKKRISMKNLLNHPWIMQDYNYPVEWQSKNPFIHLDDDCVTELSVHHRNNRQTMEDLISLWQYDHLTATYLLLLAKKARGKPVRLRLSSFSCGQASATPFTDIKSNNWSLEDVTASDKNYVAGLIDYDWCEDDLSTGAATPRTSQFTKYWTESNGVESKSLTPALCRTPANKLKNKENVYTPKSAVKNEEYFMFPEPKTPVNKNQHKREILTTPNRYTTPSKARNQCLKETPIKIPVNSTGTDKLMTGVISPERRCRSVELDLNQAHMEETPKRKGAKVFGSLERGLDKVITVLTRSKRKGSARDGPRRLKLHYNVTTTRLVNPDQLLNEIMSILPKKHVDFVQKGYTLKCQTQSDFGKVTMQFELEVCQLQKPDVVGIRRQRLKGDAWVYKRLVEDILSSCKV
Background: Polarisation of emitted light reports the rotation of a fluorescent probe.

Experiment [4] has as its system A549 cells. Put plainly: Cell-based assay: anti-proliferative activity, Cell Counting Kit-8, 72 hours (A549). The settings on record: Homo sapiens, A549, 72 h, 72 hours. The essentials:
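Cell Counting Kit-8 read-out of A549 growth after 72 hours of inhibitor exposure, cells plated in 96-well format. Values reported as IC50.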

The test system of experiment [5] is 22Rv1 cells. As to the kind of experiment: Cell-based assay: anti-proliferative activity, Cell Counting Kit-8, 72 hours (22Rv1). The settings on record: Homo sapiens.
In experiment [6] the test system is DU4475 cells. As to the kind of experiment: Cell-based assay: anti-proliferative activity, Cell Counting Kit-8, 72 hours (DU4475). The settings on record: Homo sapiens, DU-4475.

As usually defined, the IC50 is the concentration at which inhibition is half-maximal. As for `CC(=O)c1cnc2ccc(-c3ccc4nc[nH]c4c3)cc2c1N[C@H]1CC[C@H](CN(C)C)CC1` [Example 911, 1-(6-(1H-benzo[d]imidazol-6-yl)-4-((1R,4R)-4-((dimethylamino)methyl)cyclohexyl)amino)quinolin-3-yl) ethanone hydrochloride], the half-inhibitory concentration (IC50) in experiment [1] was determined as 13 µM; in experiment [2], 10 µM; in experiment [3], 0.13 µM; in experiment [4], 3.2 µM; in experiment [5], 5.4 µM; in experiment [6], 10 µM.
In the case of `CC(=O)c1cnc2ccc(-c3cc(F)c(O)c(Cl)c3)cc2c1Nc1cnc(C)c(CCN2CCCC2)c1` [Example 867, 1-(6-(3-chloro-5-fluoro-4-hydroxyphenyl)-4-((6-methyl-5-(2-(pyrrolidin-1-yl)ethyl)pyridin-3-yl)amino)quinolin-3-yl)ethanone], the IC50 in experiment [1] came to 53 µM; in experiment [2], 2.9 µM; in experiment [3], 0.014 µM; in experiment [4] it was 1.6 µM; in experiment [5], 4.6 µM; in experiment [6] it was 1.3 µM.
Consider `CC(=O)c1cnc2cc(F)c(-c3cc(Cl)c(O)c(Cl)c3)cc2c1N[C@H]1CC[C@H](CN(C)C)CC1` [Example 903, 1-(6-(3,5-dichloro-4-hydroxyphenyl)-4-((1R,4R)-4-((dimethylamino)methyl)cyclohexyl)amino)-7-fluoroquinolin-3-yl)ethanone hydrochloride], for which the IC50 in experiment [1] is 1.5 µM; in experiment [2], 0.55 µM; in experiment [3], 0.0017 µM; in experiment [4] it was 0.36 µM; in experiment [5] it was 0.27 µM; in experiment [6], 0.16 µM.
Turning to `CC(=O)c1cnc2ccc(-c3cc(Cl)c(O)c(Cl)c3)cc2c1N[C@H]1CC[C@H](C(=O)N(C)C)CC1` [Example 865, (1r,4r)-4-((3-acetyl-6-(3,5-dichloro-4-hydroxyphenyl)quinolin-4-yl)amino)-N,N-dimethylcyclohexanecarboxamide hydrochloride], the IC50 in experiment [1] worked out at 3.9 µM; in experiment [2] it was 0.38 µM; in experiment [3], 0.0093 µM; in experiment [4] it was 0.86 µM; in experiment [5], 1.5 µM; in experiment [6], 0.94 µM.
With `CC(=O)c1cnc2ccc(-c3ccc4cc(O)ccc4c3)cc2c1N[C@H]1CC[C@H](CN(C)C)CC1` [Example 929, 1-(4-((1R,4R)-4-((dimethylamino)methyl)cyclohexyl)amino)-6-(6-hydroxynaphthalen-2-yl)quinolin-3-yl)ethanone hydrochloride], the IC50 is 3.9 µM in experiment [1]; 3.3 µM in experiment [2]; 0.064 µM in experiment [3]; 0.87 µM in experiment [4]; 0.71 µM in experiment [5]; 2.8 µM in experiment [6].
As to `COc1cc(-c2cc3c(N[C@H]4CC[C@H](CN5CCCC5)CC4)c(C(C)=O)cnc3cc2F)cc(Cl)c1O` [Example 926, 1-(6-(3-chloro-4-hydroxy-5-methoxy-phenyl)-7-fluoro-4-((1R,4R)-4-(pyrrolidin-1-ylmethyl)cyclohexyl)amino)quinolin-3-yl)ethanone hydrochloride], the IC50 worked out at 5 µM in experiment [1]; 2.7 µM in experiment [2]; 0.0079 µM in experiment [3]; 0.61 µM in experiment [4]; 0.69 µM in experiment [5]; 0.55 µM in experiment [6].
`CC(=O)c1cnc2cc(F)c(-c3cc(Cl)c(O)c(Cl)c3)cc2c1N[C@H]1CC[C@H](CN2CCCC2)CC1` [Example 923, 1-(6-(3,5-dichloro-4-hydroxyphenyl)-7-fluoro-4-((1R,4R)-4-(pyrrolidin-1-ylmethyl)cyclohexyl)amino)quinolin-3-yl)ethanone hydrochloride]: the IC50 in experiment [1] was 2.5 µM; in experiment [2], 0.63 µM; in experiment [3] it was 0.007 µM; in experiment [4], 0.39 µM; in experiment [5] it was 0.29 µM; in experiment [6], 0.2 µM.

The values are drawn from US9120749B2, “Quinoline derivatives and MELK inhibitors containing the same” (ONCOTHERAPY SCIENCE, INC., priority 2010, dated 2015).
